Measurements: article PMC6547681 (Nature Communications, 2019)

Test system: BCL-2 G101V
Assay: Steady-state competition SPR against immobilised BIMBH3 peptide, BCL-2 G101V
Assay type: binding, human
Protocol: SPR experiments were performed as previously described. […] The lowest concentrations used in direct binding experiments were 1 nM for BIAcore 4000 and 0.1 nM for BIAcore S200 instruments, concentrations below these were below the sensitivity thresholds for the instruments. […] Direct binding experiments were fitted to a 1:1 binding site kinetic model, fitting on and off rates, in BIAevaluation software. For competition experiments steady-state responses were determined in BIAevaluation software according to the software defaults in affinity evaluation mode averaging responses for 5 sec. […] All affinity measurements were performed in at least two independent experiments using independent protein preparations.

Question: What does the source list for O=C(c1cc(-c2cc3c(cc2C(=O)N2Cc4ccccc4C[C@H]2CN2CCOCC2)OCO3)n2c1CCCC2)N(c1ccccc1)c1ccc(O)cc1 [S55746]?
Answer: S55746 binding weaker than venetoclax (BCL-2 G101V): > 10 fold; Raw data values in Figure 3g (SPR response) (S55746 concentration 20, BCL-2 concentration 10 nM, independent experiment 1): 59.4981; Raw data values in Figure 3g (SPR response) (S55746 concentration 20, BCL-2 concentration 10 nM, independent experiment 2): 173.158; Raw data values in Figure 3g (SPR response) (S55746 concentration 20, BCL-2 concentration 10 nM, independent experiment 3): 34.4335; Raw data values in Figure 3g (SPR response) (S55746 concentration 20, BCL-2 concentration 20 nM, independent experiment 1): 71.3826; Raw data values in Figure 3g (SPR response) (S55746 concentration 20, BCL-2 concentration 20 nM, independent experiment 2): 232.183; Raw data values in Figure 3g (SPR response) (S55746 concentration 20, BCL-2 concentration 20 nM, independent experiment 3): 41.9552; Raw data values in Figure 3g (SPR response) (S55746 concentration 20, BCL-2 concentration 30 nM, independent experiment 1): 77.2987; Raw data values in Figure 3g (SPR response) (S55746 concentration 20, BCL-2 concentration 30 nM, independent experiment 2): 262.629; Raw data values in Figure 3g (SPR response) (S55746 concentration 20, BCL-2 concentration 30 nM, independent experiment 3): 45.3747; Raw data values in Figure 3g (SPR response) (S55746 concentration 20, BCL-2 concentration 40 nM, independent experiment 1): 80.4228; Raw data values in Figure 3g (SPR response) (S55746 concentration 20, BCL-2 concentration 40 nM, independent experiment 2): 280.533; Raw data values in Figure 3g (SPR response) (S55746 concentration 20, BCL-2 concentration 40 nM, independent experiment 3): 47.3992; Raw data values in Figure 3g (SPR response) (S55746 concentration 20, BCL-2 concentration 50 nM, independent experiment 1): 83.2844; Raw data values in Figure 3g (SPR response) (S55746 concentration 20, BCL-2 concentration 50 nM, independent experiment 2): 293.102; Raw data values in Figure 3g (SPR response) (S55746 concentration 20, BCL-2 concentration 50 nM, independent experiment 3): 48.7371; Raw data values in Figure 3g (SPR response) (S55746 concentration 20, BCL-2 concentration 60 nM, independent experiment 1): 85.1797; Raw data values in Figure 3g (SPR response) (S55746 concentration 20, BCL-2 concentration 60 nM, independent experiment 2): 302.908; Raw data values in Figure 3g (SPR response) (S55746 concentration 20, BCL-2 concentration 60 nM, independent experiment 3): 49.7741; Raw data values in Figure 3g (SPR response) (S55746 concentration 20, BCL-2 concentration 70 nM, independent experiment 1): 86.4751; Raw data values in Figure 3g (SPR response) (S55746 concentration 20, BCL-2 concentration 70 nM, independent experiment 2): 309.956; Raw data values in Figure 3g (SPR response) (S55746 concentration 20, BCL-2 concentration 70 nM, independent experiment 3): 50.4376; Raw data values in Figure 3g (SPR response) (S55746 concentration 20, BCL-2 concentration 80 nM, independent experiment 1): 87.9511; Raw data values in Figure 3g (SPR response) (S55746 concentration 20, BCL-2 concentration 80 nM, independent experiment 2): 316.608; Raw data values in Figure 3g (SPR response) (S55746 concentration 20, BCL-2 concentration 80 nM, independent experiment 3): 51.0592; Raw data values in Figure 3g (SPR response) (S55746 concentration 20, BCL-2 concentration 100 nM, independent experiment 1): 89.5861; Raw data values in Figure 3g (SPR response) (S55746 concentration 20, BCL-2 concentration 100 nM, independent experiment 2): 324.599; Raw data values in Figure 3g (SPR response) (S55746 concentration 20, BCL-2 concentration 100 nM, independent experiment 3): 51.7173; Raw data values in Figure 3g (SPR response) (S55746 concentration 20, BCL-2 concentration 150 nM, independent experiment 1): 91.8559; Raw data values in Figure 3g (SPR response) (S55746 concentration 20, BCL-2 concentration 150 nM, independent experiment 2): 337.351; Raw data values in Figure 3g (SPR response) (S55746 concentration 20, BCL-2 concentration 150 nM, independent experiment 3): 52.8108; Raw data values in Figure 3g (SPR response) (S55746 concentration 20, BCL-2 concentration 200 nM, independent experiment 1): 93.1192; Raw data values in Figure 3g (SPR response) (S55746 concentration 20, BCL-2 concentration 250 nM, independent experiment 2): 349.701; Raw data values in Figure 3g (SPR response) (S55746 concentration 20, BCL-2 concentration 250 nM, independent experiment 3): 53.5404; Raw data values in Figure 3g (SPR response) (S55746 concentration 40, BCL-2 concentration 10 nM, independent experiment 1): 53.0775; Raw data values in Figure 3g (SPR response) (S55746 concentration 40, BCL-2 concentration 10 nM, independent experiment 2): 142.314; Raw data values in Figure 3g (SPR response) (S55746 concentration 40, BCL-2 concentration 10 nM, independent experiment 3): 29.9924; Raw data values in Figure 3g (SPR response) (S55746 concentration 40, BCL-2 concentration 20 nM, independent experiment 1): 66.1797; Raw data values in Figure 3g (SPR response) (S55746 concentration 40, BCL-2 concentration 20 nM, independent experiment 2): 204.771; Raw data values in Figure 3g (SPR response) (S55746 concentration 40, BCL-2 concentration 20 nM, independent experiment 3): 38.5613; Raw data values in Figure 3g (SPR response) (S55746 concentration 40, BCL-2 concentration 30 nM, independent experiment 1): 73.4709; Raw data values in Figure 3g (SPR response) (S55746 concentration 40, BCL-2 concentration 30 nM, independent experiment 2): 240.258; Raw data values in Figure 3g (SPR response) (S55746 concentration 40, BCL-2 concentration 30 nM, independent experiment 3): 42.9042; Raw data values in Figure 3g (SPR response) (S55746 concentration 40, BCL-2 concentration 40 nM, independent experiment 1): 77.7102; Raw data values in Figure 3g (SPR response) (S55746 concentration 40, BCL-2 concentration 40 nM, independent experiment 2): 263.387; Raw data values in Figure 3g (SPR response) (S55746 concentration 40, BCL-2 concentration 40 nM, independent experiment 3): 45.6376; Raw data values in Figure 3g (SPR response) (S55746 concentration 40, BCL-2 concentration 50 nM, independent experiment 1): 81.3114; Raw data values in Figure 3g (SPR response) (S55746 concentration 40, BCL-2 concentration 50 nM, independent experiment 2): 278.636; Raw data values in Figure 3g (SPR response) (S55746 concentration 40, BCL-2 concentration 50 nM, independent experiment 3): 47.2724; Raw data values in Figure 3g (SPR response) (S55746 concentration 40, BCL-2 concentration 60 nM, independent experiment 1): 83.6106; Raw data values in Figure 3g (SPR response) (S55746 concentration 40, BCL-2 concentration 60 nM, independent experiment 2): 291.594
